Measured values reported in US20250353819A1, “ARYL HYDANTOIN COMPOUNDS AND METHODS OF USE” (priority 2022, published 2025).
Several values for one entry are separate records, joined by “and”; a condition that tells them apart may be missing. Equal entries are not always repeated. Where two headings read alike, the source gives them in different places.

Tests used:
[1] = molecular target: CYP 1A2 (Homo sapiens (Human), UniProt P05177); assay: CYP inhibition in human liver microsomes, 1A2; type: in vitro ADME
[2] = Stability in mouse cryopreserved hepatocytes; type: in vitro ADME
[3] = Whole blood-to-plasma ratio, mouse
[4] = Partition coefficient (Log D) by gradient HPLC; type: physicochemical; settings: pH 7.4, chromatographic estimate; read-out: gLogD7.4
Text: Partition Coefficient. Partition coefficient values (Log D) of the test compounds were estimated by correlation of their chromatographic retention properties against the characteristics of a series of standard compounds with known partition coefficient values using gradient HPLC (modification of a method reported by Lombardo et al., 2001).

[5] = Plasma protein binding (rapid equilibrium dialysis), human plasma; type: in vitro ADME; settings: for fraction unbound: human, plasma, read-out: % bound (converted)
[6] = In vitro metabolic stability, mouse liver microsomes; type: in vitro ADME; settings: mouse liver microsomes; read-out: m CLint
Protocol: (§1) In Vitro Metabolic Stability. As described by Charman et al. (2020), metabolic stability assays were performed by incubating test compounds in liver microsomes at 37° C. and 0.4 mg/mL protein concentration. The metabolic reaction was initiated by the addition of an NADPH-regenerating system and quenched at various time points over a 60 min incubation period by the addition of acetonitrile containing diazepam as internal standard. Control samples (containing no NADPH) were included (and quenched at 2, 30 and 60 min) to monitor for potential degradation in the absence of cofactor.

[7] = Kinetic solubility (nephelometry); type: physicochemical; settings: aqueous buffer, kinetic from dmso stock; kinetic solubility, pH 6.5 phosphate buffer; read-out: Sol6.5
Protocol: Kinetic Solubility. Compounds in DMSO (10 mg/mL) were diluted into either pH 6.5 phosphate buffer or 0.01 M HCl (approx. pH 2.0) with the final DMSO concentration being 1%. Samples were then analysed via nephelometry to determine a solubility range (Bevan and Lloyd, 2000).

[8] = molecular target: CYP 2C9 (Homo sapiens (Human), UniProt P11712); assay: CYP inhibition in human liver microsomes, 2C9
[9] = LogD7.4 (shake flask); settings: pH 7.4
[10] = tested on: LAPC4 cells; assay: Androgen-dependent cell-based assay (DHT, LAPC4); settings: for IC50: Homo sapiens, DHT-induced, androgen-dependent LAPC4 prostate cancer cell line, read-out: LAPC4 IC50
Protocol: Androgen-Dependent Cell-based Assay. As described by Jones and Diamond (2008), LAPC4 cells were cultured in phenol red free RPMI 1640 media supplemented with antibiotics and 10% FBS. […] […] Mean-effect plots (log[compound] vs. log[fractional effect]) were generated to determine the IC50 values for each test compound or combinations of test compounds at constant ratios.

[11] = Plasma protein binding, rat plasma; type: in vitro ADME; settings: read-out: % bound (converted)
[12] = Stability in rat cryopreserved hepatocytes; type: in vitro ADME; settings: for CLint: Rat cryopreserved hepatocytes
[13] = tested on: S. mansoni; assay: Antischistosomal screen in S. mansoni-infected mice; type: in vivo, Schistosoma mansoni; settings: Schistosoma mansoni, single oral dose, mouse model
Text: Antischistosomal Screen. […] As described by Lombardo et al. (2019), cercariae of S. mansoni were obtained from infected Biomphalaria glabrata. By way of example, NMRI mice were infected subcutaneously with approximately 100 S. mansoni cercariae. […] Untreated mice (n=8) served as controls. At 21 d post-treatment, animals were killed by the CO2 method and dissected. Worms were removed by picking, then sexed and counted.

[14] = In vitro metabolic stability, dog microsomes; type: in vitro ADME; settings: liver microsomes
Protocol: as §1

[15] = Binding to HLM; settings: human liver microsomes
[16] = tested on: S. japonicum; assay: S. japonicum infections in hamsters; type: in vivo
[17] = in vivo; design: species or system dog; settings: for clearance: read-out: Plasma CL; for AUC(0-t): read-out: mean AUClast; for C0: read-out: mean plasma concentration extrapolated to time zero (C0); for MTD: Beagle dogs, read-out: maximum tolerated dose (MTD); for NOAEL: male and female Beagle dogs, read-out: no observed adverse effect level (NOAEL)
Protocol: The same 2M/2F dogs were used following 2-week washout periods for each dose level in escalation order. This was a survival study and animals were not sacrificed. The following parameters were evaluated: mortality/morbidity, clinical observations, body weights, plasma drug levels, pharmacokinetics and clinical pathology (hematology, coagulation and serum chemistry).

[18] = tested on: S. japonicum; assay: S. japonicum infections in mice; type: in vivo
[19] = In vitro metabolic stability, rat microsomes; type: in vitro ADME; settings: liver microsomes
Protocol: as §1

[20] = Whole blood to plasma partitioning, human; type: in vitro ADME
[21] = adult stage, read-out: S. mansoni ED50, adult
[22] = juvenile stage, read-out: S. mansoni ED50, juvenile
[23] = beagle, dog, in vivo, female dogs, iv 1 mg/kg
[24] = beagle, dog, in vivo, male dogs, iv 1 mg/kg
[25] = both sexes, dog, in vivo, single po administration

Sequence of CYP 2C9 (P11712 whole entry): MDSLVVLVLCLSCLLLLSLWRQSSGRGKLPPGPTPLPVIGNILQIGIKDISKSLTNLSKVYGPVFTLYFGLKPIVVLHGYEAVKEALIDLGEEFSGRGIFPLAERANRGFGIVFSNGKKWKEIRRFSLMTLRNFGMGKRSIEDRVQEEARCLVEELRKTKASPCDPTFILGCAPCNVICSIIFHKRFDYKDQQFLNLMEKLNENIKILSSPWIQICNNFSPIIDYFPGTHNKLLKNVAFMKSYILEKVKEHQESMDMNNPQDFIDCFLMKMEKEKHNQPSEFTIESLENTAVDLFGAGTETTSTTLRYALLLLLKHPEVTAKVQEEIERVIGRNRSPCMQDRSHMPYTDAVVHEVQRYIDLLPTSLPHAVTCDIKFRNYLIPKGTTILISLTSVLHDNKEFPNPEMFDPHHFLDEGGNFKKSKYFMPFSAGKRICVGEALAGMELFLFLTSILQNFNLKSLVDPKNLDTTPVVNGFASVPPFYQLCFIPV
Sequence of CYP 1A2 (P05177 whole entry): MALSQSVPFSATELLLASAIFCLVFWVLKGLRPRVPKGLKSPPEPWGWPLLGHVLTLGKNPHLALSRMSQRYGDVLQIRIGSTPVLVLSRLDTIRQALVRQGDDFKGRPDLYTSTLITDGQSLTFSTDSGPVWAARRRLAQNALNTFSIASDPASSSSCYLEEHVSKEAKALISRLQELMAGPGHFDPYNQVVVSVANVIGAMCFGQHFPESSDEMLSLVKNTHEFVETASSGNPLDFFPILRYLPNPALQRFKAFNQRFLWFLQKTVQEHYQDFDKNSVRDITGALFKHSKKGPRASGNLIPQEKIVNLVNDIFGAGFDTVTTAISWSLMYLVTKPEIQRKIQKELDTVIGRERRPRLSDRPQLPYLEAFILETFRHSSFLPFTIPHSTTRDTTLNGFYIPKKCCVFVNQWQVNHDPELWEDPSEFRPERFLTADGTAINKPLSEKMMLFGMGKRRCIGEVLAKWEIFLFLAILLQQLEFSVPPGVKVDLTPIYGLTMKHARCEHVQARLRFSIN

For `CC1(C)NC(=O)N(c2ccc(F)c(C(C)(F)F)c2)C1=O` [Compound IC, 3-(3-(1,1-difluoroethyl)-4-fluorophenyl)-5,5-dimethylimidazolidine-2,4-dione], the IC50 [1] was over 20 µM, the CLint [2] was under 1.8 μL/min/10^6 and the “B:P” value [3] was 0.95. For the same compound, the chromatographic logD [4] was 2.6, the fraction unbound [5] was 0.34 and the microsomal CLint [6] was under 7 µL/min/mg. For the same compound, the solubility kinetic [7] was over 100 µg/mL, the IC50 [8] was over 20 µM and the “LogD7.4 (shake flask)” value [9] was 2.1. It also gave a logD [9] of 2.1, an IC50 [10] of over 100 µM and a fraction unbound [11] of 0.38. For the same compound, the CLint [12] was under 1 μL/min/10^6, the ED50 [13, 21] was 20 mg/kg and the ED50 [13, 22] was 23 mg/kg.
With `[2H]C([2H])([2H])C1(C([2H])([2H])[2H])NC(=O)N(c2ccc(F)c(C(C)(F)F)c2)C1=O` [Compound IE, 3-(3-(1,1-difluoroethyl)-4-fluorophenyl)-5,5-bis(methyl-d3)imidazolidine-2,4-dione] the IC50 ([1]; 1A2, read-out: CYP inhibition IC50) was over 20 µM, the CYP inhibition ([1]; CYP 1A2, concentrations up to 20 μM, human liver microsomes) was “did not inhibit” and the CLint [2] was under 2 μL/min/10^6. The hepatocyte CLint ([2]; read-out: in vitro CLint) was under 2000 µL/min/1e6 cells, the microsomal CLint [14] was under 7 µL/min/mg and the “B:P” value [3] was 1.0. The chromatographic logD [4] was 2.5, the “% bound” value [5] was 63% and the fraction unbound [5] was 0.367. For the same compound, the fraction unbound [15] was 1, the microsomal CLint [6] was under 7 µL/min/mg and the ED50 ([16]; Schistosoma japonicum, oral) was 8.5 mg/kg. For the same compound, the “clearance of S. japonicum infections” value ([16]; single 25 mg/kg oral dose) was “completely cleared”, the CYP inhibition ([8]; CYP 2C9, concentrations up to 20 μM, human liver microsomes) was “did not inhibit” and the IC50 ([8]; read-out: CYP inhibition IC50, 2C9) was over 20 µM. It also gave an AUC ([17]; beagle, dog, in vivo, female dogs (n = 2), IV 1 mg/kg, read-out: Plasma AUCIV 0-last) of 405 µg·h/mL, a clearance ([17]; beagle, dog, in vivo, female dogs (n = 2), IV 1 mg/kg) of 1.92 mL/h/kg and an AUC ([17]; beagle, dog, in vivo, female dogs (n = 2), PO 15 mg/kg, read-out: Plasma AUCoral 0-last) of 7030 µg·h/mL. The Cmax ([17]; beagle, dog, in vivo, female dogs (n = 2), PO 15 mg/kg, read-out: Plasma Cmax) was 42700 ng/mL, the AUC(0-t) [17, 23] was 377 µg·h/mL and the Cmax ([17]; beagle, dog, in vivo, female dogs, iv 1 mg/kg, read-out: mean peak plasma concentration (Cmax)) was 12500 ng/mL. The C0 [17, 23] was 18800 ng/mL, the AUC ([17]; beagle, dog, in vivo, male dogs (n = 2), IV 1 mg/kg, read-out: Plasma AUCIV 0-last) was 526 µg·h/mL and the clearance ([17]; beagle, dog, in vivo, male dogs (n = 2), IV 1 mg/kg) was 1.44 mL/h/kg. It also gave an AUC ([17]; beagle, dog, in vivo, male dogs (n = 2), PO 15 mg/kg, read-out: Plasma AUCoral 0-last) of 8800 µg·h/mL, a Cmax ([17]; beagle, dog, in vivo, male dogs (n = 2), PO 15 mg/kg, read-out: Plasma Cmax) of 51900 ng/mL and an AUC(0-t) [17, 24] of 485 µg·h/mL. It also gave a Cmax ([17]; beagle, dog, in vivo, male dogs, iv 1 mg/kg, read-out: mean peak plasma concentration (Cmax)) of 6880 ng/mL, a C0 [17, 24] of 9460 ng/mL and a Tmax ([17]; both sexes, beagle, dog, in vivo, dogs, po dose groups 15, 75, 150 mg/kg, read-out: time of peak plasma concentrations (Tmax)) of 0.25 to 24 h. The MTD ([17]; both sexes, dog, in vivo, 1 mg/kg, single iv administration) was over 1 mg/kg, the MTD [17, 25] was over 150 mg/kg and the NOAEL ([17]; both sexes, dog, in vivo, single iv administration) was at least 1 mg/kg. For the same compound, the NOAEL [17, 25] was at least 150 mg/kg, the “Bioavailability, determined using AUClast” value ([17]; both, beagle, dog, in vivo, po) was “greater than 100%” and the “increase in AUClast, 150 mg/kg compared to mid-dose” value ([17]; both, beagle, dog, in vivo, po, 150 mg/kg) was 2-3 fold. For the same compound, the PlasmaVSS ([17]; female, beagle, dog, in vivo, iv, 1 mg/kg) was 0.45 L/kg, the half-life ([17]; female, beagle, dog, in vivo, iv, 1 mg/kg, female dogs (n = 2), IV 1 mg/kg, read-out: Apparent t1/2 (converted)) was 123 h and the half-life ([17]; female, beagle, dog, in vivo, iv, 1 mg/kg, female dogs, iv 1 mg/kg, read-out: mean elimination phase half-life (t1/2) (converted)) was 152 h. The “BA based on AUC0-last” value ([17]; female, beagle, dog, in vivo, po, 15 mg/kg) was 115%, the half-life ([17]; female, beagle, dog, in vivo, po, 150 mg/kg, female dogs, po 150 mg/kg, read-out: mean t1/2 (converted)) was 402 h and the “Apparent t1/2” value ([17]; male dogs (n = 2), PO 15 mg/kg) was 237 h. The PlasmaVSS ([17]; male, beagle, dog, in vivo, iv, 1 mg/kg) was 0.36 L/kg, the half-life ([17]; male, beagle, dog, in vivo, iv, 1 mg/kg, male dogs (n = 2), IV 1 mg/kg, read-out: Apparent t1/2 (converted)) was 155 h and the half-life ([17]; male, beagle, dog, in vivo, iv, 1 mg/kg, male dogs, iv 1 mg/kg, read-out: mean elimination phase half-life (t1/2) (converted)) was 167 h. The “BA based on AUC0-last” value ([17]; male, beagle, dog, in vivo, po, 15 mg/kg) was 111%, the half-life ([17]; male, beagle, dog, in vivo, po, 15 mg/kg, male dogs (n = 2), PO 15 mg/kg, read-out: Apparent t1/2 (converted)) was 237 h and the half-life ([17]; male, beagle, dog, in vivo, po, 75 mg/kg, male dogs, po 75 mg/kg, read-out: mean t1/2 (converted)) was 341 h. For the same compound, the ED50 ([18]; Schistosoma japonicum, oral) was 6.7 mg/kg, the “clearance of S. japonicum infections” value ([18]; single 25 mg/kg oral dose) was “completely cleared” and the “LogD7.4 (shake flask)” value [9] was 1.9. For the same compound, the logD [9] was 1.9, the microsomal CLint [19] was under 7 µL/min/mg and the IC50 [10] was over 100 µM. The “inhibition of DHT-induced cell proliferation” value ([10]; concentrations up to 100 μM) was “did not inhibit”, the fraction unbound [11] was 0.42 and the “B:P” value [20] was 0.78±0.035 and 0.78. For the same compound, the CLint [12] was under 2 μL/min/10^6, the hepatocyte CLint ([12]; rat cryopreserved hepatocytes, read-out: in vitro CLint) was under 2000 µL/min/1e6 cells and the ED50 [13, 21] was 7.1 mg/kg. It also gave an ED50 [13, 22] of 16 mg/kg.
